# Data published in US20260285849A1, “METHYLOPHIOPOGONONE A DERIVATIVE, AND PREPARATION AND USE THEREOF” (INSTITUTE OF MATERIA MEDICA, CHINESE ACADEMY OF MEDICAL …, priority 2022, published 2026).
# Read-outs that look alike come from different tables or passages of the source. Marks after values point to notes of the source that are not given here.
# What was measured:
# Rat H9C2 cardiomyocytes [1] = settings: for OD: 10 μM, 50 μM Ang II 24 h, MTT 570 nm
# Method: (§3) Rat H9C2 cardiomyocytes in the logarithmic growth phase were seeded at a density of 7×10^4 cells/mL into 96-well plates, with 100 μL per well. […] After 24 hours of culture, the drug treatment groups were respectively added with 50 μM Ang II and the corresponding concentration of the drug. The Ang II model group was added with 50 μM Ang II and an equal volume of DMSO, and the blank control group was added with an equal volume of DMSO. Then, the cells were cultured for another 24 hours. After removing the supernatant, 100 μL of MTT solution (0.5 mg/mL) was added to each well, and the plates were placed in an incubator for 4 hours. After removing the supernatant again, 150 μL of DMSO was added to each well, and the mixture was shaken and mixed evenly for 10 minutes. The absorbance was measured at 570 nm using a microplate reader to calculate the cell viability.
# (§4) Cell viability (%)=[(As−Ab)/(Ac−Ab)]×100% • As: Experimental well (culture medium containing cells, MTT, Ang II); • Ac: Control well (culture medium containing cells, MTT, without Ang II); • Ab: Blank well (culture medium without cells, MTT, without Ang II).
# H9C2 cardiomyocytes [2] = settings: for OD: 6 h hypoxia, 12 h reoxygenation, CCK 450 nm; for Cell viability: rat, h9c2 cells
# Method: (§5) H9C2 cardiomyocytes in the logarithmic growth phase were seeded into 96-well plates at a density of 7×10^4 cells/mL, with 100 μL per well.
# (§6) After 24 hours of culture, the culture medium of the H/R and drug-treated groups was replaced with serum-free glucose-free DMEM medium (100 μL per well). The cells were then placed in an anaerobic incubator and cultured under hypoxic conditions in a 37° C. cell culture incubator. After 6 hours, the supernatant of the H/R and drug-treated groups was removed and replaced with high-glucose medium containing 10% fetal bovine serum (100 μL per well). Each drug-treated group received the corresponding concentration of the drug, while the H/R model group and the blank control group received an equal volume of DMSO.
# (§7) After removing the supernatant, 100 μL of CCK solution (the volume of CCK accounted for 10% of the DMEM culture medium volume) was added to each well. The cells were cultured in the cell culture incubator for 1 hour, and the absorbance was measured at 450 nm using a microplate reader to calculate the cell viability. Cell viability was calculated as follows: Cell viability (%)=(Experimental well-Blank well)/(Control well-Blank well)×100%.
# Rat H9C2 cardiomyocytes [3] = settings: for OD: 800 μM ISO 24 h, MTT 570 nm; for Cell survival rate: rat, h9c2 cells, 24 h
# Method: (§8) Rat H9C2 cardiomyocytes in the logarithmic growth phase were seeded into 96-well plates at a density of 7×10^4 cells/mL, with 100 μL per well. […] After 24 hours of culture, the drug groups were treated with 800 μM ISO and the corresponding concentrations of drugs. The ISO model group received 800 μM ISO and an equal volume of DMSO, and the blank control group received an equal volume of DMSO. The cells were then cultured for another 24 hours. After removing the supernatant, 100 μL MTT solution (0.5 mg/mL) was added to each well and incubated in the cell culture incubator for 4 hours. After removing the supernatant, 150 μL DMSO was added to each well, mixed by shaking for 10 minutes, and the absorbance was measured at 570 nm using a microplate reader to calculate cell viability. Cell viability (%)=[(As−Ab)/(Ac−Ab)]×100%. As: Experimental well (medium with cells, MTT, ISO); Ac: Control well (medium with cells, MTT, without ISO); Ab: Blank well (medium without cells, MTT, without ISO).
# H9C2 cardiomyocytes [4] = assay: cells; settings: Rattus norvegicus, H9c2, read-out: Cell viability
# Method: as §5, §6, §7
# [5] = system: mice with isoproterenol (ISO)-induced ischemic heart disease; assay: ISO-induced ischemic heart disease mouse model: Ca2+ in myocardial tissue; assay type: in vivo; settings: 20 mg/kg intragastric once a day 11 days
# Method: (§1) Male C57BL/6 mice were allowed to acclimate to the environment and then randomly divided into 9 groups, namely the blank control group, the ISO model group, the ISO+diltiazem 20 mg/kg positive control drug group, the ISO+Formula I (0.1, 0.5, 2 mg/kg) groups, and the ISO+Formula II (0.1, 0.5, 2 mg/kg) groups. Mice in the drug administration groups were intragastrically administered the corresponding doses of Formula I and Formula II compounds once a day at the same time. Mice in the positive drug diltiazem group were intragastrically administered the corresponding dose of diltiazem once a day. Mice in the blank control group and the model group were given the same amount of solvent (0.5% CMC-Na). The administration volume was 10 mL/kg, and the administration was continuous for 11 days.
# (§2) From the 4th to the 10th day of drug administration, ISO modeling was carried out. The blank control group was subcutaneously injected with normal saline, and mice in the other groups were subcutaneously injected with ISO at a dose of 40 mg/kg (modeling was performed 2 hours after drug administration), for a total of 7 times.
# Calcium ion detection in myocardial tissue: After the experiment ended, some myocardial tissue was taken to prepare a 10% myocardial tissue homogenate with ultrapure water. The homogenate was centrifuged at 1200 rpm for 20 minutes at 4° C. to separate the supernatant of the myocardial tissue homogenate. The calcium ion content was determined according to the kit instructions; protein quantification was performed using the BCA protein assay method.
# [6] = system: mice with isoproterenol (ISO)-induced ischemic heart disease; assay: ISO-induced ischemic heart disease mouse model: serum ANP and NT-proBNP (ELISA); assay type: in vivo; settings: 20 mg/kg intragastric once a day 11 days, ISO 40 mg/kg s.c. 7 times
# Method: as §1, §2
# Detection of Myocardial Hypertrophy/Heart Failure Biomarkers: After the drug administration ended, the animals' eyes were enucleated to collect blood. The blood was left to stand at room temperature for 2 hours, and then centrifuged at 3500 rpm for 20 minutes to separate the serum. The contents of serum ANP and NT-proBNP were determined according to the instructions of the ELISA kit.
# Rat H9C2 cardiomyocytes [7] = assay: cells; settings: H9c2, 24 h, read-out: Cell viability
# Method: as §3, §4
# [8] = system: mice with isoproterenol (ISO)-induced ischemic heart disease; assay: ISO-induced ischemic heart disease mouse model: serum CK-MB (ELISA); assay type: in vivo; settings: 20 mg/kg intragastric once a day 11 days
# Method: as §1, §2
# Myocardial enzyme CK-MB detection: After the administration ended, blood was collected from the animals by enucleation. The blood was left to stand at room temperature for 2 hours, and then centrifuged at 3500 rpm for 20 minutes to separate the serum. The content of CK-MB in the serum was determined according to the instructions of the ELISA kit.
# [9] = system: mice with isoproterenol (ISO)-induced ischemic heart disease; assay: ISO-induced ischemic heart disease mouse model: myocardial tissue pathology (H&E); assay type: in vivo; settings: 20 mg/kg, H&E
# Method: as §1, §2
# Pathological detection of myocardial tissue: After the experiment ended, the heart was washed with ice-cold physiological saline and dried with absorbent paper. It was then cut transversely into two halves. One-third of the part closer to the apex of the heart was fixed in a 4% paraformaldehyde solution. After dehydration with gradient ethanol and clearing with xylene, it was immersed in melted paraffin three times for embedding, 30 minutes each time. After embedding, continuous sections (about 4 μm thick) were made. Routine hematoxylin and eosin (H.E.) staining was performed. The pathological state of the myocardial tissue was observed under an optical microscope, photographed, and analyzed.
# • −: No abnormalities were observed. • +: No myocardial tissue damage was seen. There was local hypertrophy of cardiomyocytes in the interventricular septum and papillary muscles, local edema and degeneration of cardiomyocytes, widening of the local muscle space in the lesion area, and mild non-specific inflammation in the interstitium. • ++: No obvious myocardial tissue damage (cardiomyocyte necrosis) was observed. There was local hypertrophy of cardiomyocytes in the interventricular septum and papillary muscles, local edema and degeneration of cardiomyocytes. Myofibril dissolution (disappearance of cross-striations) could be seen in local areas. The lesions were relatively limited and distributed in small foci. Non-specific inflammation was visible in the interstitium, and local fibrous tissue hyperplasia in the interstitium was noted. • +++: There was obvious hypertrophy of cardiomyocytes in the interventricular septum and papillary muscles, local edema and degeneration of cardiomyocytes. […] The lesion was limited to the subendocardium of the local interventricular septum (or papillary muscle), with a limited and small affected area. Non-specific inflammation was visible in the interstitium of the lesion area, and local fibrous tissue hyperplasia in the interstitium was noted. • ++++: The hypertrophy of cardiomyocytes in the interventricular septum and papillary muscles is remarkable. Locally, there is edema and degeneration of cardiomyocytes; there is obvious damage (necrosis of cardiomyocytes) in the myocardial tissue of the local interventricular septum and papillary muscles. The lesions are distributed in foci (or small patches), and the affected area is relatively large. […] Locally, there is edema and degeneration of cardiomyocytes; the damage (necrosis of cardiomyocytes) of the myocardial tissue of the local interventricular septum and papillary muscles is severe. The damage (necrosis) lesions are distributed in patches and are connected to each other. Transmural myocardial tissue damage of the interventricular septum and papillary muscles can be seen locally.
# H9C2 cardiomyocytes [10] = assay: Angiotensin II (Ang II)-induced cardiomyocyte hypertrophy model, crystal violet, cell surface area; assay type: cell-based, rat; settings: 10 μM; 40 μM Ang II 24 h; mean of 5 views
# Method: Adjust the H9C2 cardiomyocytes in the logarithmic growth phase to a density of 1.2×10^5 cells/well and inoculate them into six-well plates. […] After culturing for 24 hours, the drug administration groups are added with 40 μM Ang II and the corresponding concentrations of drugs. The Ang II+diltiazem 10 μM group is added with 40 μM Ang II and 10 μM diltiazem. The Ang II model group is added with 40 μM Ang II and an equal volume of DMSO. The blank control group is added with an equal volume of DMSO. Then, continue culturing for 24 hours. Discard the culture medium, wash the cells 3 times with PBS. Add 1 mL of methanol to each well and fix the cells at −20° C. for 20 minutes, and then let them return to room temperature. After discarding the methanol, add 1 mL of 0.5% crystal violet staining solution to each well and stain for 10 minutes. Wash the cells with clean water and take pictures under an inverted microscope. Randomly select fields of view for photographing. Use Image J software to measure the sum of the surface areas of all cardiomyocytes in the field of view and count the number of cells in the field of view at the same time to obtain the surface area of each cardiomyocyte. The surface area of a single cardiomyocyte=the sum of the surface areas of all cardiomyocytes in the field of view/the number of cardiomyocytes in the field of view.
# Rat H9C2 cardiomyocytes [11] = assay: cells; settings: H9c2, 24 h, read-out: Cell survival rate
# Method: as §8
smiles,measurement,setting,value
"Cc1c(O)c(C)c2occ(Cc3ccc4c(c3)OCO4)c(=O)c2c1O [methyl ophiopogonone A, reference compound]",OD,Rat H9C2 cardiomyocytes [1],0.833 ± 0.041
same,Cell viability,"Rat H9C2 cardiomyocytes [1]; rat, h9c2 cells, 24 h, 10 µM",77.40%
same,OD,H9C2 cardiomyocytes [2]; 1 μM,0.540 ± 0.034
same,OD,H9C2 cardiomyocytes [2]; 5 μM,0.501 ± 0.042
same,OD,H9C2 cardiomyocytes [2]; 10 μM,0.581 ± 0.054
same,Cell viability,H9C2 cardiomyocytes [2]; 1 µM,51.93%
same,Cell viability,H9C2 cardiomyocytes [2]; 5 µM,48.17%
same,Cell viability,H9C2 cardiomyocytes [2]; 10 µM,55.82%
same,OD,Rat H9C2 cardiomyocytes [3]; 1 μM,0.781 ± 0.029
same,OD,Rat H9C2 cardiomyocytes [3]; 5 μM,0.801 ± 0.045
same,OD,Rat H9C2 cardiomyocytes [3]; 10 μM,0.724 ± 0.024^(p = 0.09)
same,Cell survival rate,Rat H9C2 cardiomyocytes [3]; 1 µM,64.63%
same,Cell survival rate,Rat H9C2 cardiomyocytes [3]; 5 µM,66.28%
same,Cell survival rate,Rat H9C2 cardiomyocytes [3]; 10 µM,59.89%
"COc1ccc([C@@H]2Sc3ccccc3N(CCN(C)C)C(=O)[C@@H]2OC(C)=O)cc1 [Diltiazem, reference compound]",OD,Rat H9C2 cardiomyocytes [1],0.857 ± 0.042
same,viability at 10 µM,H9C2 cardiomyocytes [4],50.2%
same,Ca^2+,[5],0.057 ± 0.011 mmol/gprot
same,ANP,[6],361.59 ± 46.95^ pg/mL
same,NT-proBNP,[6],43.12 ± 2.93 pg/mL
same,viability at 10 µM,Rat H9C2 cardiomyocytes [7],79.7%
same,CK-MB,[8],17.98 ± 2.88 ng/mL
same,The number of animals with lesion degree +,[9],3
same,The number of animals with lesion degree ++,[9],1
same,The number of animals with lesion degree +++,[9],4
same,The number of animals with lesion degree ++++,[9],0
same,The number of animals with lesion degree +++++,[9],0
same,The number of animals with lesion degree −,[9],2
same,average score of myocardial tissue lesion degree,[9],1.70 ± 1.25
same,Myocardial surface area,H9C2 cardiomyocytes [10],392.02 ± 19.37^### μm^2
same,OD,H9C2 cardiomyocytes [2]; 10 μM,0.522 ± 0.061
same,viability at 10 µM,Rat H9C2 cardiomyocytes [11],63.9%
same,OD,Rat H9C2 cardiomyocytes [3]; 10 μM,0.773 ± 0.029
Cc1c(O)cc2occ(Cc3ccc4c(c3)OCO4)c(=O)c2c1O [Formula III],viability at 0.1 µM,H9C2 cardiomyocytes [4],53.1%
same,viability at 0.3 µM,H9C2 cardiomyocytes [4],48.1%
same,viability at 1 µM,H9C2 cardiomyocytes [4],53.4%
same,viability at 3 µM,H9C2 cardiomyocytes [4],55.8%
same,viability at 5 µM,H9C2 cardiomyocytes [4],52.2%
same,viability at 10 µM,H9C2 cardiomyocytes [4],50.6%
same,OD,H9C2 cardiomyocytes [2]; 0.1 μM,0.552 ± 0.067
same,OD,H9C2 cardiomyocytes [2]; 0.3 μM,0.500 ± 0.062
same,OD,H9C2 cardiomyocytes [2]; 1 μM,0.555 ± 0.053
same,OD,H9C2 cardiomyocytes [2]; 3 μM,0.580 ± 0.069
same,OD,H9C2 cardiomyocytes [2]; 5 μM,0.543 ± 0.037
same,OD,H9C2 cardiomyocytes [2]; 10 μM,0.527 ± 0.047
same,viability at 1 µM,Rat H9C2 cardiomyocytes [11],67.4%
same,viability at 5 µM,Rat H9C2 cardiomyocytes [11],65.5%
same,viability at 10 µM,Rat H9C2 cardiomyocytes [11],62.1%
same,OD,Rat H9C2 cardiomyocytes [3]; 1 μM,0.815 ± 0.041
same,OD,Rat H9C2 cardiomyocytes [3]; 5 μM,0.792 ± 0.061
same,OD,Rat H9C2 cardiomyocytes [3]; 10 μM,0.750 ± 0.065
